# Source: US8716292B2, “Riminophenazines with 2-(heteroaryl)amino substituents and their anti-microbial activity” (priority 2010, dated 2014)
# Tested on: Mycobacterium tuberculosis H37Rv strains
# Test: In vitro assay for antimicrobial susceptibility (microplate Alamar blue MIC)
# Assay type: cell-based
# Details: Mycobacterium tuberculosis, H37RV, in vitro, Mycobacterium tuberculosis H37Rv strains; read-out: MIC (μg/mL) against H37Rv
row,SMILES,MIC [µg/mL]
1,"COCC(C/N=c1\cc2n(-c3ccc(Cl)cc3)c3ccccc3nc-2cc1Nc1cccnc1OC)OC (stereo not drawn) [TBI-872, 5-(4-Chlorophenyl)-3-(2,3-dimethoxy-1-propyl)imino-2-(2-methoxy-3-pyridyl)amino-3,5-dihydrophenazine]",0.06
2,"Cc1ccc(Nc2cc3nc4cc(F)ccc4n(-c4ccc(Cl)c(Cl)c4)c-3c/c2=N\C2CCOCC2)cn1 [TBI-873, 8-Fluoro-5-(3,4-dichlorophenyl)-3-(4-tetrahydropyranyl)imino-2-(6-methyl-3-pyridyl)amino-3,5-dihydrophenazine]",0.076
3,"COc1ncccc1Nc1cc2nc3cc(F)ccc3n(-c3ccc(Cl)c(Cl)c3)c-2c/c1=N\C(C)C [TBI-874, 8-Fluoro-5-(3,4-dichlorophenyl)-3-(1-methylethyl)imino-2-(2-methoxy-3-pyridyl)amino-3,5-dihydrophenazine]",0.129
4,"COc1ncccc1Nc1cc2nc3cc(F)ccc3n(-c3ccc(Cl)c(Cl)c3)c-2c/c1=N\C1CC1 [TBI-875, 8-Fluoro-5-(3,4-dichlorophenyl)-3-cyclopropylimino-2-(2-methoxy-3-pyridyl)amino-3,5-dihydrophenazine]",0.047
5,"COc1ncccc1Nc1cc2nc3cc(F)ccc3n(-c3ccc(Cl)c(Cl)c3)c-2c/c1=N\C1CCOCC1 [TBI-877, 8-Fluoro-5-(3,4-dichlorophenyl)-3-(4-tetrahydropyranyl)imino-2-(2-methoxy-3-pyridyl)amino-3,5-dihydrophenazine]",0.091
6,"COC1CCC(/N=c2\cc3n(-c4ccc(Cl)c(Cl)c4)c4ccc(F)cc4nc-3cc2Nc2ccc(C)nc2)CC1 (stereo not drawn) [TBI-878, 8-Fluoro-5-(3,4-dichlorophenyl)-3-(4-methoxycyclohexyl)imino-2-(6-methyl-3-pyridinyl)amino-3,5-dihydrophenazine]",0.029
7,"COc1ncccc1Nc1cc2nc3cc(F)ccc3n(-c3ccc(Cl)c(Cl)c3)c-2c/c1=N\C1CCC(OC)CC1 (stereo not drawn) [TBI-879, 8-Fluoro-5-(3,4-dichlorophenyl)-3-(4-methoxycyclohexyl)imino-2-(2-methoxy-3-pyridyl)amino-3,5-dihydrophenazine]",0.109
8,"Clc1ccc(-n2c3c/c(=N\C4CCOCC4)c(Nc4cncc(Br)c4)cc-3nc3ccccc32)cc1 [TBI-880, 5-(4-Chlorophenyl)-3-(4-tetrahydropyranyl)imino-2-(5-bromo-3-pyridyl)amino-3,5-dihydrophenazine]",0.036
9,"CO[C@H]1CC[C@H](/N=c2\cc3n(-c4ccc(Cl)cc4)c4ccccc4nc-3cc2Nc2cncc(Br)c2)CC1 [TBI-881, 5-(4-Chlorophenyl)-3-(1′,4′-trans-4-methoxycyclohexyl)imino-2-(5-bromo-3-pyridyl)amino-3,5-dihydrophenazine]",0.052
10,"Clc1ccc(-n2c3c/c(=N\C4CC4)c(Nc4cncc(Br)c4)cc-3nc3ccccc32)cc1 [TBI-882, 5-(4-Chlorophenyl)-3-cyclopropylimino-2-(5-bromo-3-pyridyl)amino-3,5-dihydrophenazine]",0.015
11,"Clc1ccc(-n2c3c/c(=N\C4CCC4)c(Nc4cncc(Br)c4)cc-3nc3ccccc32)cc1 [TBI-883, 5-(4-Chlorophenyl)-3-cyclobutylimino-2-(5-bromo-3-pyridyl)amino-3,5-dihydrophenazine]",0.03
12,"COc1ncccc1Nc1cc2nc3ccc(F)cc3n(-c3ccc(Cl)c(Cl)c3)c-2c/c1=N\C1CCOCC1 [TBI-884, 7-Fluoro-5-(3,4-dichlorophenyl)-3-(4-tetrahydropyranyl)imino-2-(2-methoxy-3-pyridyl)amino-3,5-dihydrophenazine]",0.5
13,"COc1ncccc1Nc1cc2nc3ccc(F)cc3n(-c3ccc(Cl)c(Cl)c3)c-2c/c1=N\C1CC1 [TBI-885, 7-Fluoro-5-(3,4-dichlorophenyl)-3-cyclopropylimino-2-(2-methoxy-3-pyridyl)amino-3,5-dihydrophenazine]",0.06
14,"COc1ncccc1Nc1cc2nc3ccc(F)cc3n(-c3ccc(Cl)c(Cl)c3)c-2c/c1=N\C1CCC1 [TBI-886, 7-Fluoro-5-(3,4-dichlorophenyl)-3-cyclobutylimino-2-(2-methoxy-3-pyridyl)amino-3,5-dihydrophenazine]",0.06
15,"Cc1ccc(Nc2cc3nc4cc(F)ccc4n(-c4ccc(Cl)c(Cl)c4)c-3c/c2=N\C(C)C)cn1 [TBI-887, 8-Fluoro-5-(3,4-dichlorophenyl)-3-(1-methylethyl)imino-2-(6-methyl-3-pyridyl)amino-3,5-dihydrophenazine]",0.062
16,Cc1ccc(Nc2cc3nc4cc(F)ccc4n(-c4ccc(Cl)c(Cl)c4)c-3c/c2=N\C2CC2)cn1 [TBI-888],0.028
17,"CC(C)/N=c1\cc2n(-c3ccccc3Cl)c3ccccc3nc-2cc1Nc1cccnc1 [TBI-890, 5-(2-Chlorophenyl)-3-(1-methylethyl)imino-2-(3-pyridyl)amino-3,5-dihydrophenazine]",0.476
18,"Clc1ccccc1-n1c2c/c(=N\C3CCCCC3)c(Nc3cccnc3)cc-2nc2ccccc21 [TBI-891, 5-(2-Chlorophenyl)-3-cyclohexylimino-2-(3-pyridyl)amino-3,5-dihydrophenazine]",0.036

row,SMILES,MIC [µg/mL]
1,"Clc1ccccc1-n1c2c/c(=N\C3CC3)c(Nc3cccnc3)cc-2nc2ccccc21 [TBI-892, 5-(2-Chlorophenyl)-3-cyclopropylimino-2-(3-pyridyl)amino-3,5-dihydrophenazine]",0.028
2,"COc1ncccc1Nc1cc2nc3ccccc3n(-c3ccc(Cl)cc3Cl)c-2c/c1=N\C1CCC1 [TBI-893, 5-(2,4-Dichlorophenyl)-3-cyclobutylimino-2-(2-methoxy-3-pyridyl)amino-3,5-dihydrophenazine]",0.06
3,"COc1ccc2nc3cc(Nc4cccnc4OC)/c(=N/C4CC4)cc-3n(-c3ccc(Cl)cc3)c2c1 [TBI-894, 7-Methoxy-5-(4-chlorophenyl)-3-cyclopropylimino-2-(2-methoxy-3-pyridyl)amino-3,5-dihydrophenazine]",0.06
4,"COc1ccc2nc3cc(Nc4cccnc4OC)/c(=N/C4CCC4)cc-3n(-c3ccc(Cl)cc3)c2c1 [TBI-895, 7-Methoxy-5-(4-chlorophenyl)-3-cyclobutylimino-2-(2-methoxy-3-pyridyl)amino-3,5-dihydrophenazine]",0.125
5,"Cc1ccc(Nc2cc3nc4ccc(F)cc4n(-c4ccc(Cl)c(Cl)c4)c-3c/c2=N\C(C)C)cn1 [TBI-896, 7-Fluoro-5-(3,4-dichlorophenyl)-3-(1-methylethyl)imino-2-(6-methyl-3-pyridyl)amino-3,5-dihydrophenazine]",0.25
6,"COC1CCC(/N=c2\cc3n(-c4ccc(Cl)c(Cl)c4)c4cc(F)ccc4nc-3cc2Nc2ccc(C)nc2)CC1 (stereo not drawn) [TBI-897, 7-Fluoro-5-(3,4-dichlorophenyl)-3-(4-methoxycyclohexyl)imino-2-(6-methyl-3-pyridyl)amino-3,5-dihydrophenazine]",0.25
7,COc1ccc2nc3cc(Nc4ccc(C)nc4)/c(=N/C(C)C)cc-3n(-c3ccc(Cl)cc3)c2c1 [TBI-898],0.25
8,"COc1ncccc1Nc1cc2nc3ccc(F)cc3n(-c3ccc(Cl)c(Cl)c3)c-2c/c1=N\C(C)C [TBI-899, 7-Fluoro-5-(3,4-dichlorophenyl)-3-(1-methylethyl)imino-2-(2-methoxy-3-pyridyl)amino-3,5-dihydrophenazine]",0.125
9,"Cc1ccc(Nc2cc3nc4ccccc4n(-c4ccc(F)cc4)c-3c/c2=N\C2CCOCC2)cn1 [TBI-900, 5-(4-Fluorophenyl)-3-(4-tetrahydropyranyl)imino-2-(6-methyl-3-pyridyl)amino-3,5-dihydrophenazine]",0.125
10,"Cc1ccc(Nc2cc3nc4ccccc4n(-c4ccc(F)cc4)c-3c/c2=N\C2CCN(C)CC2)cn1 [TBI-901, 5-(4-Fluorophenyl)-3-(N-methyl-4-piperidyl)imino-2-(6-methyl-3-pyridyl)amino-3,5-dihydrophenazine]",0.102
11,"Cc1ccc(Nc2cc3nc4ccccc4n(-c4ccc(F)cc4)c-3c/c2=N\CC2CCCN(C)C2)cn1 (stereo not drawn) [TBI-902, 5-(4-Fluorophenyl)-3-(N-methyl-3-piperidylmethyl)imino-2-(6-methyl-3-pyridyl)amino-3,5-dihydrophenazine]",0.058
12,"Cc1ccc(Nc2cc3nc4ccccc4n(-c4ccc(F)cc4)c-3c/c2=N\C2CCN(CC(C)C)CC2)cn1 [TBI-904, 5-(4-Fluorophenyl)-3-(N-isobutyl-4-piperidyl)imino-2-(6-methyl-3-pyridyl)amino-3,5-dihydrophenazine]",0.016
13,"Cc1ccc(Nc2cc3nc4ccccc4n(-c4ccc(F)cc4)c-3c/c2=N\C2CCCCC2)cn1 [TBI-905, 5-(4-Fluorophenyl)-3-cyclohexylimino-2-(6-methyl-3-pyridyl)amino-3,5-dihydrophenazine]",0.057
14,"Cc1ccc(Nc2cc3nc4ccccc4n(-c4ccc(F)cc4)c-3c/c2=N\[C@H]2CC[C@H](O)CC2)cn1 [TBI-906, 5-(4-Fluorophenyl)-3-(1′,4′-trans-4-hydroxycyclohexyl)imino-2-(6-methyl-3-pyridyl)amino-3,5-dihydrophenazine]",0.5
15,"CO[C@H]1CC[C@H](/N=c2\cc3n(-c4ccc(F)cc4)c4ccccc4nc-3cc2Nc2ccc(C)nc2)CC1 [TBI-907, 5-(4-Fluorophenyl)-3-(1′,4′-trans-4-methoxycyclohexyl)imino-2-(6-methyl-3-pyridyl)amino-3,5-dihydrophenazine]",0.063
16,"Cc1ccc(Nc2cc3nc4ccccc4n(-c4ccc(F)cc4)c-3c/c2=N\C2CC2)cn1 [TBI-908, 5-(4-Fluorophenyl)-3-cyclopropylimino-2-(6-methyl-3-pyridyl)amino-3,5-dihydrophenazine]",0.03
17,"CC(=O)Nc1ccc(Nc2cc3nc4ccccc4n(-c4ccc(F)cc4)c-3c/c2=N\C(C)C)cn1 [TBI-910, 5-(4-Fluorophenyl)-3-(1-methylethyl)imino-2-(6-acetamino-3-pyridyl)amino-3,5-dihydrophenazine]",0.147
18,"CC(=O)Nc1ccc(Nc2cc3nc4ccccc4n(-c4ccc(F)cc4)c-3c/c2=N\C2CCOCC2)cn1 [TBI-911, 5-(4-Fluorophenyl)-3-(4-tetrahydropyranyl)imino-2-(6-acetamino-3-pyridyl)amino-3,5-dihydrophenazine]",0.36
